# Literature values, collected in US20240228966A1, “UROLITHIN FOR INCREASING STEM CELL FUNCTION” (SOCIETE DES PRODUITS NESTLE S.A., priority 2021, published 2024).
# Tested on: human HSCs
# Details: culture media supplemented with nicotinamide riboside; cited from earlier work
smiles,measurement,value
NC(=O)c1ccc[n+]([C@@H]2O[C@H](CO)[C@@H](O)[C@H]2O)c1 [nicotinamide riboside],levels of engraftment in recipient humanised mice,significantly higher levels of engraftment
